Here are results for eight compounds from patent US7342024B2, “4-Oxo-1-3-substituted phenyl-1,4-dihydro-1,8-naphthyridine-3-carboxamide phosphodiesterase-4 inhibitors” (Merck Frost Canada Ltd., priority 2002, dated 2008).

This experiment has as its target T1, human recombinant phosphodiesterase IVb (met-248) (Homo sapiens, UniProt Q07343).
T1 construct: fused on or other part: GST (glutathione transferase) fused on as a tag
As to the kind of experiment: SPA based PDE activity assay. The class given is biochemical. The settings on record: 100 nM cAMP, purified GST fusion protein of PDE IVb (met-248) from baculovirus/Sf-9. The protocol:
Compounds which inhibit the hydrolysis of cAMP to AMP by the type-IV cAMP-specific phosphodiesterases were screened in a 96-well plate format as follows:
In a 96 well-plate at 30° C. was added the test compound (dissolved in 2 μL DMSO), […] of substrate buffer containing [2,8-^3H] adenosine 3′,5′-cyclic phosphate (cAMP, 110 nM to 50 μM), 10 mM MgCl2, 1 mM EDTA, 50 mM Tris, pH 7.5. The reaction was initiated by the addition of […] of human recombinant PDE4 (the amount was controlled so that ˜10% product was formed in 10 min.). The reaction was stopped after 10 min. by the addition of 1 mg of PDE-SPA beads (Amersham Pharmacia Biotech, Inc., Piscataway, N.J.). The product AMP generated was quantified on a Wallac Microbeta® 96-well plate counter (EG&G Wallac Co., Gaithersburg, Md.). The signal in the absence of enzyme was defined as the background. 100% activity was defined as the signal detected in the presence of enzyme and DMSO with the background subtracted. Percentage of inhibition was calculated accordingly. IC50 value was approximated with a non-linear regression fit using the standard 4-parameter/multiple binding sites equation from a ten point titration.
The IC50 values of the Examples disclosed here under were determined with 100 nM cAMP using the purified GST fusion protein of the human recombinant phosphodiesterase IVb (met-248) produced from a baculovirus/Sf-9 expression system.

T1 sequence (Q07343 236-736): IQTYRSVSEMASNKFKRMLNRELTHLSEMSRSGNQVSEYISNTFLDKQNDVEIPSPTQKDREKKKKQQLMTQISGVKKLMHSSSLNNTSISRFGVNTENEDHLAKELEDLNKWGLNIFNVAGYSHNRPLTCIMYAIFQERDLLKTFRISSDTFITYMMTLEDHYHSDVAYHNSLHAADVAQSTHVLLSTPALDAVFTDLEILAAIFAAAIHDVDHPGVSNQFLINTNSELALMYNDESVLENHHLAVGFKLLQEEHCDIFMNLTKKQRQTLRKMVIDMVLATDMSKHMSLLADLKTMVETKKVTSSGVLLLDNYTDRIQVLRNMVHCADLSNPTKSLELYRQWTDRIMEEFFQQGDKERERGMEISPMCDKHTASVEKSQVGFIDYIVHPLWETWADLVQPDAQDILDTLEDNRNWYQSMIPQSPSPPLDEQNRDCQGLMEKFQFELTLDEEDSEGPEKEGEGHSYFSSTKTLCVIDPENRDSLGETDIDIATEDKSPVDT

For the compound `O=C(NCC(F)(F)F)c1cn(-c2cccc(-c3ccc([C@@H]4C[C@H]4C(=O)O)cc3)c2)c2ncccc2c1=O` (single isomer, unassigned; (+)) [24-(+)-isomer, (+)-(trans)-2-{3′-[4-oxo-3-{[(2,2,2-trifluoroethyl)amino]carbonyl}-1,8-naphthyridin-1(4H)-yl]biphenyl-4-yl}cyclopropanecarboxylic acid], the IC50 came out at 0.4 nM. Take `O=C(NCC(F)(F)F)c1cn(-c2cccc(-c3ccc(C4CC4C(=O)O)c(F)c3)c2)c2ncccc2c1=O` (single isomer, unassigned; (+)) [Example 29, (+)-(trans)-2-{3-fluoro-3′-[4-oxo-3-{[(2,2,2-trifluoroethyl)amino]carbonyl}-1,8-naphthyridin-1(4H)-yl]biphenyl-4-yl}cyclopropanecarboxylic acid]: the IC50 came to 0.3 nM.

Turning to `O=C(NC1CC1)c1cn(-c2cccc(-c3ccc([C@H]4C[C@H]4C(=O)O)cc3)c2)c2ncccc2c1=O` (single isomer, unassigned; isomer 2) [8-(−)-isomer, 2-(cis)-{3′-[3-[(Cyclopropylamino)carbonyl]-4-oxo-1,8-naphthyridin-1(4H)-yl]-1,1′-biphenyl-4-yl}cyclopropanecarboxylic acid], the IC50 is 0.7 nM. `O=C(NC1CC1)c1cn(-c2cccc(-c3ccc(C4CC4C(=O)O)c(F)c3)c2)c2ncccc2c1=O` (single isomer, unassigned; isomer 2) [12-(−)-isomer, 2-{3′-[3-[(Cyclopropylamino)carbonyl]-4-oxo-1,8-naphthyridin-1(4H)-yl]-3-fluoro-1,1′-biphenyl-4-yl}cyclopropanecarboxylic acid]: the half-inhibitory concentration (IC50) was 0.4 nM.

`O=C(NC1CC1)c1cn(-c2cccc(-c3cccc(C4CC4C(=O)O)c3)c2)c2ncccc2c1=O` (centres unmarked) [Example 2]: the concentration for half-maximal inhibition (IC50) was found to be 0.2 nM. As for `CC(C)(CC(=O)O)c1ccc(-c2cccc(-n3cc(C(=O)NC4CC4)c(=O)c4cccnc43)c2)cc1` [Example 5, 3-{3′-[3-[(Cyclopropylamino)carbonyl]4-oxo-1,8-naphthyridin-1(4H)-yl]-1,1′-biphenyl-4-yl}-3-methylbutanoic acid], the IC50 was 0.6 nM. For `O=C(NC1CC1)c1cn(-c2cccc(-c3ccc(C4CC4C(=O)O)c(Cl)c3)c2)c2ncccc2c1=O` (centres unmarked) [Example 17, 2-{3-Chloro-3′-[3-[(cyclopropylamino)carbonyl]-4-oxo-1,8-naphthyridin-1(4H)-yl]-1,1′-biphenyl-4-yl}cyclopropanecarboxylic acid], the IC50 came out at 0.1 nM. As for `O=C(NCC1CC1)c1cn(-c2cccc(-c3ccc(C4CC4C(=O)O)cc3)c2)c2ncccc2c1=O` (centres unmarked) [Example 26, 2-{3′-[3-{[(Cyclopropylmethyl)amino]carbonyl}4-oxo-1,8-naphthyridin-1(4H)-yl]-1,1′-biphenyl-4-yl}cyclopropanecarboxylic acid], the IC50 was 0.2 nM.

As a reminder, the IC50 is the concentration that inhibits the measured activity by half.
